Earlier results in patent US6689909B1, “Substituted N-phenyl 2-hydroxy-2-methyl-3,3,3-trifluoropropanamide derivatives which elevate pyruvate dehydrogenase activity” (AstraZeneca AB, priority 1999, dated 2004).

Experiments:
[1] = after repeated administration
PDH = conditions: single administration, 150 mg/kg, intraperitoneally

Q: Which plasma glucose [1] does the source give for O=C(O)C(Cl)Cl [DCA, dichloroacetic acid] here?
A: significant decrease in plasma glucose

Q: What about the “proportion of PDH in its active form” value (PDH) of the same molecule?
A: increased the proportion of PDH in its active form
